Tested on: EL-4 lymphoma cells
Test: PDT of EL-4 lymphoma cells with TH9402 and light
Type: cell-based
Procedure: The strain of mice B6SJL was used for the evaluation of PDT to induce immuno-protection. In generation of tumor cell lysates, EL-4 cells (American Type Culture Collection, ATCC Accession # TIB-39) were seeded in flasks at 10^6 cells/ml and exposed to 10 μM TH9402 in serum free DMEM without phenol red medium for 40 minutes, followed by exposure to drug-free medium for 90 minutes, then illuminated with a dose of 10J/cm^2. Treated cells were incubated overnight. After incubation, cells and supernatants were collected and spun down. The resulting supernatant was collected, concentrated by vacuum speed using a molecular sieve (centriplus 3000 molecular weight cut-off), and stored frozen at −70° C. until use.

With `Br.COC(=O)c1ccccc1-c1c2ccc(=N)c(Br)c-2oc2c(Br)c(N)ccc12` [TH9402, 2′-(6-amino-4,5-dibromo-3-imino-3H-xanthen-9-yl)-benzoic acid methyl ester hydrobromide] the “cell death of EL-4 lymphoma cells undergoing PDT” value was “rapidly proceed to programmed cell death, apoptosis and/or necrosis”.
